For five compounds, relative viability results are on record in the supplement of paper PMC10307832.

In one assay the test system is NCI-H1755. Nature of the assay: relative viability (nuclei count vs DMSO), 5 days (fraction); higher = more cells survive. Conditions: first compound 0.253 µM. A digest of the protocol:
(§1)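 Cells from lung cancer lines were seeded into 1536-well plates and, one day later, dosed by pin tool. Treatments were either a single drug or a fixed dose of an anchor drug with five library-drug doses (not always all listed) in √10 steps. After 5 days, nuclei were stained in a one-step fixation (final 0.05% Triton X-100, 1% formaldehyde, 1 ug/ml Hoechst) and counted on 4× images, and relative viability is the treated-to-vehicle nuclei ratio, as the median of duplicate plates.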
Take `Oc1nc(-c2ccc(C(F)(F)F)cc2)nc2c1CSCC2` [XAV939] + CC(=O)c1c(C)c2cnc(Nc3ccc(N4CCNCC4)cn3)nc2n(C2CCCC2)c1=O [Palbociclib] (partner 0.5 µM): the relative viability stood at 0.341.
The same measure, in the same setting: in the case of `C=C1C(=O)O[C@@H](CCCCCCCC)[C@@H]1C(=O)O` [C-75] + CC(=O)c1c(C)c2cnc(Nc3ccc(N4CCNCC4)cn3)nc2n(C2CCCC2)c1=O [Palbociclib] (partner 0.5 µM) it was 0.428.

Staying with this assay, now noted: first compound 0.8 µM.
Take `Oc1nc(-c2ccc(C(F)(F)F)cc2)nc2c1CSCC2` [XAV939] + O=C(CCCCCCC(=O)Nc1ccccc1)NO [Vorinostat] (partner 1 µM): the relative viability came out at 0.74.
Compound `C=C1C(=O)O[C@@H](CCCCCCCC)[C@@H]1C(=O)O` [C-75] + Nc1nc2[nH]cc(CCc3ccc(C(=O)N[C@@H](CCC(=O)O)C(=O)O)cc3)c2c(=O)[nH]1 [Pemetrexed] (partner 0.2 µM) came in with a relative viability of 0.46.
Compound `Oc1nc(-c2ccc(C(F)(F)F)cc2)nc2c1CSCC2` [XAV939] + O=C(c1cc(Cc2n[nH]c(=O)c3ccccc23)ccc1F)N1CCN(C(=O)C2CC2)CC1 [Olaparib] (partner 8 µM) showed a relative viability of 0.816.
On the same count and under the same terms, in the case of `Oc1nc(-c2ccc(C(F)(F)F)cc2)nc2c1CSCC2` [XAV939] + CC(=O)c1c(C)c2cnc(Nc3ccc(N4CCNCC4)cn3)nc2n(C2CCCC2)c1=O [Palbociclib] (partner 0.5 µM) it was 0.458; in that of `C=C1C(=O)O[C@@H](CCCCCCCC)[C@@H]1C(=O)O` [C-75] + CC(=O)c1c(C)c2cnc(Nc3ccc(N4CCNCC4)cn3)nc2n(C2CCCC2)c1=O [Palbociclib] (partner 0.5 µM), 0.42.

Staying with this assay, now noted: first compound 2.53 µM.
Take `Oc1nc(-c2ccc(C(F)(F)F)cc2)nc2c1CSCC2` [XAV939] + O=C(CCCCCCC(=O)Nc1ccccc1)NO [Vorinostat] (partner 1 µM): the relative viability is 0.602.
On the same count and under the same terms, as for `C=C1C(=O)O[C@@H](CCCCCCCC)[C@@H]1C(=O)O` [C-75] + Nc1nc2[nH]cc(CCc3ccc(C(=O)N[C@@H](CCC(=O)O)C(=O)O)cc3)c2c(=O)[nH]1 [Pemetrexed] (partner 0.2 µM), the figure is 0.391; as for `Oc1nc(-c2ccc(C(F)(F)F)cc2)nc2c1CSCC2` [XAV939] + O=C(c1cc(Cc2n[nH]c(=O)c3ccccc23)ccc1F)N1CCN(C(=O)C2CC2)CC1 [Olaparib] (partner 8 µM), 0.733; as for `Oc1nc(-c2ccc(C(F)(F)F)cc2)nc2c1CSCC2` [XAV939] + CC(=O)c1c(C)c2cnc(Nc3ccc(N4CCNCC4)cn3)nc2n(C2CCCC2)c1=O [Palbociclib] (partner 0.5 µM), 0.414.
Same read-out and setting: in the case of `C=C1C(=O)O[C@@H](CCCCCCCC)[C@@H]1C(=O)O` [C-75] + CC(=O)c1c(C)c2cnc(Nc3ccc(N4CCNCC4)cn3)nc2n(C2CCCC2)c1=O [Palbociclib] (partner 0.5 µM) it was 0.378.

The same assay, now with this note: first compound 8 µM.
As to `C=C1C(=O)O[C@@H](CCCCCCCC)[C@@H]1C(=O)O` [C-75] + Nc1nc2[nH]cc(CCc3ccc(C(=O)N[C@@H](CCC(=O)O)C(=O)O)cc3)c2c(=O)[nH]1 [Pemetrexed] (partner 0.2 µM), the relative viability worked out at 0.438.
The compound `C=C1C(=O)O[C@@H](CCCCCCCC)[C@@H]1C(=O)O` [C-75] + CC(=O)c1c(C)c2cnc(Nc3ccc(N4CCNCC4)cn3)nc2n(C2CCCC2)c1=O [Palbociclib] (partner 0.5 µM) gave a relative viability of 0.408.

Another assay deals with NCI-H1915. Described as above. Conditions: first compound 0.08 µM. A digest of the protocol:
as §1
Turning to `Oc1nc(-c2ccc(C(F)(F)F)cc2)nc2c1CSCC2` [XAV939] + O=C(CCCCCCC(=O)Nc1ccccc1)NO [Vorinostat] (partner 1 µM), the relative viability was determined as 0.603.
Same read-out and setting: as for `C=C1C(=O)O[C@@H](CCCCCCCC)[C@@H]1C(=O)O` [C-75] + Nc1nc2[nH]cc(CCc3ccc(C(=O)N[C@@H](CCC(=O)O)C(=O)O)cc3)c2c(=O)[nH]1 [Pemetrexed] (partner 0.2 µM), the figure is 0.471.
`Oc1nc(-c2ccc(C(F)(F)F)cc2)nc2c1CSCC2` [XAV939] + O=C(c1cc(Cc2n[nH]c(=O)c3ccccc23)ccc1F)N1CCN(C(=O)C2CC2)CC1 [Olaparib] (partner 8 µM) showed a relative viability of 0.247.
Still for that read-out and setting: in the case of `Oc1nc(-c2ccc(C(F)(F)F)cc2)nc2c1CSCC2` [XAV939] + CC(=O)c1c(C)c2cnc(Nc3ccc(N4CCNCC4)cn3)nc2n(C2CCCC2)c1=O [Palbociclib] (partner 0.5 µM) it was 0.592; in that of `C=C1C(=O)O[C@@H](CCCCCCCC)[C@@H]1C(=O)O` [C-75] + CC(=O)c1c(C)c2cnc(Nc3ccc(N4CCNCC4)cn3)nc2n(C2CCCC2)c1=O [Palbociclib] (partner 0.5 µM), 0.515.

The assay is the same for the next values; noted with them: first compound 0.253 µM.
On to `Oc1nc(-c2ccc(C(F)(F)F)cc2)nc2c1CSCC2` [XAV939] + O=C(CCCCCCC(=O)Nc1ccccc1)NO [Vorinostat] (partner 1 µM), for which the relative viability turned out to be 0.51.
In the case of `C=C1C(=O)O[C@@H](CCCCCCCC)[C@@H]1C(=O)O` [C-75] + Nc1nc2[nH]cc(CCc3ccc(C(=O)N[C@@H](CCC(=O)O)C(=O)O)cc3)c2c(=O)[nH]1 [Pemetrexed] (partner 0.2 µM), the relative viability was found to be 0.475.
In the case of `Oc1nc(-c2ccc(C(F)(F)F)cc2)nc2c1CSCC2` [XAV939] + O=C(c1cc(Cc2n[nH]c(=O)c3ccccc23)ccc1F)N1CCN(C(=O)C2CC2)CC1 [Olaparib] (partner 8 µM), the relative viability worked out at 0.256.
On to `Oc1nc(-c2ccc(C(F)(F)F)cc2)nc2c1CSCC2` [XAV939] + CC(=O)c1c(C)c2cnc(Nc3ccc(N4CCNCC4)cn3)nc2n(C2CCCC2)c1=O [Palbociclib] (partner 0.5 µM), for which the relative viability was 0.54.
Still for that read-out and setting: as for `C=C1C(=O)O[C@@H](CCCCCCCC)[C@@H]1C(=O)O` [C-75] + CC(=O)c1c(C)c2cnc(Nc3ccc(N4CCNCC4)cn3)nc2n(C2CCCC2)c1=O [Palbociclib] (partner 0.5 µM), the figure is 0.556.

The assay is the same for the next values; noted with them: first compound 0.8 µM.
For the compound `Oc1nc(-c2ccc(C(F)(F)F)cc2)nc2c1CSCC2` [XAV939] + O=C(CCCCCCC(=O)Nc1ccccc1)NO [Vorinostat] (partner 1 µM), the relative viability was 0.5.
Same read-out and setting: in the case of `C=C1C(=O)O[C@@H](CCCCCCCC)[C@@H]1C(=O)O` [C-75] + Nc1nc2[nH]cc(CCc3ccc(C(=O)N[C@@H](CCC(=O)O)C(=O)O)cc3)c2c(=O)[nH]1 [Pemetrexed] (partner 0.2 µM) it was 0.483; in that of `Oc1nc(-c2ccc(C(F)(F)F)cc2)nc2c1CSCC2` [XAV939] + O=C(c1cc(Cc2n[nH]c(=O)c3ccccc23)ccc1F)N1CCN(C(=O)C2CC2)CC1 [Olaparib] (partner 8 µM), 0.239.
On the same count and under the same terms, as for `Oc1nc(-c2ccc(C(F)(F)F)cc2)nc2c1CSCC2` [XAV939] + CC(=O)c1c(C)c2cnc(Nc3ccc(N4CCNCC4)cn3)nc2n(C2CCCC2)c1=O [Palbociclib] (partner 0.5 µM), the figure is 0.567; as for `C=C1C(=O)O[C@@H](CCCCCCCC)[C@@H]1C(=O)O` [C-75] + CC(=O)c1c(C)c2cnc(Nc3ccc(N4CCNCC4)cn3)nc2n(C2CCCC2)c1=O [Palbociclib] (partner 0.5 µM), 0.546.

The same assay, now with this note: first compound 2.53 µM.
The compound `Oc1nc(-c2ccc(C(F)(F)F)cc2)nc2c1CSCC2` [XAV939] + O=C(CCCCCCC(=O)Nc1ccccc1)NO [Vorinostat] (partner 1 µM) came in with a relative viability of 0.498.
For `C=C1C(=O)O[C@@H](CCCCCCCC)[C@@H]1C(=O)O` [C-75] + Nc1nc2[nH]cc(CCc3ccc(C(=O)N[C@@H](CCC(=O)O)C(=O)O)cc3)c2c(=O)[nH]1 [Pemetrexed] (partner 0.2 µM), the relative viability was 0.448.
